# Source: patent EP1285971B1, “Methods for the phenotypic and genotypic assessment of the drug sensitivity of HIV integrase variants” (Tibotec Pharmaceuticals Ltd., priority 2001, dated 2003)
# Where two headings read alike, the source gives them in different places.
# Tested on: patient_146514
# Assay: microbe, parasite or virus in culture
# Type: cell-based, HIV
# Conditions: for fold change: fold change in EC50
# Protocol: The integrase encoding sequence was amplified from either wildtype HIV-1 (IIIB) or NL4.3 virus, or HXB2D site-directed mutant viruses containing mutations in integrase (such as T66I, S153Y, M154I, or combinations thereof) (Hazuda et al., Science 2000, 287, 646-650), or patient samples. Starting from RNA, extracted from virus supernatant or plasma using the QIAamp® viral RNA extraction kit (Qiagen), cDNA was synthesized by reverse transcription (Expand TM reverse transcriptase, 30 min at 42°C) with the primer 3'EGINT10 (SEQ ID NO 11), followed by a nested PCR. The outer PCR was performed with the primers 5'EGINT1 (SEQ ID NO 1) and 3'EGINT10 (SEQ ID NO 11) (ΔR-IN-vif construct) or 5'EGINT3 (SEQ ID NO 4) and 3'EGINT10 (SEQ ID NO 11) (ΔIN construct) (Expand™ High Fidelity PCR system), and 5 µl of the outer product was used for an inner PCR with primers 5'EGINT2 (SEQ ID NO 3) and 3'EGINT11 (SEQ ID NO 12) (ΔR-IN-vif construct) or 5'EGINT4 (SEQ ID NO 5) and 3'EGINT6 (SEQ ID NO 7) (ΔIN construct). In a second protocol the outer primers were identical as described above, the inner primers are 5'EGINT5 (SEQ ID NO 6) and 3'EGINT6 (SEQ ID NO 7). The amplicons can be used for genotyping and phenotyping. Cycling conditions for both PCRs are denaturation for 3 min at 95°C, followed by 30 cycles of 1 min 90°C, 30 sec 55°C, and 2 min 72°C. A final extension was performed at 72°C for 10 min. For recombination, PCR products are purified using the QiaQuick® 96 PCR BioRobot kit (Qiagen), according to the manufacturer's protocol. If the protocol starts from DNA containing the HIV material such as proviral DNA, the reverse transcriptase step is not needed. The nested approach is also not needed when starting from proviral DNA. The obtained amplicons were sequenced using the primers: In_seq1F (SEQ ID NO 17), In_seq2F (SEQ ID NO 18), In_seq3F (SEQ ID NO 19), IN_seq1R (SEQ ID NO 20), IN_seq2R (SEQ ID NO 21), and IN_seq3R (SEQ ID NO 22).
# A ΔR-IN-vif or ΔIN deletion construct was generated by site-directed mutagenesis on the template pSV40HXB2D with the primers MUT-IN1 (SEQ ID NO 13) and MUT-IN2 (ΔR-IN-vif construct) (SEQ ID NO 14) or MUT-IN3 (SEQ ID NO 15) and MUT-IN4 (SEQ ID NO 16) (ΔIN construct) (protocol Site-directed mutagenesis kit, Stratagene). After DpnI digestion for removal of the methylated template DNA, the construct was digested with SmaI and ligated to circulize the plasmid. The plasmid was transformed into competent cells such as Top10 cells, and colonies were screened for the presence of the deletion construct. The IN-deletion construct was checked by sequence analysis with primers 5'EGINT1 (SEQ ID NO 1) or […] and 3'EGINT10 (SEQ ID NO 11) or 3'EGINT11 (SEQ ID NO 12). For use in recombination experiments, large-scale plasmid DNA preparations were linearized by SmaI digestion and recombined with PCR amplified integrase genes from wild type, mutant, or patient viruses. The plasmid containing the integrase deletion (ΔIN) has been deposited pSV40HXB2D-ΔIN. The sequence of said plasmid is 14377 nucleotides long. The ΔR-IN-vif deletion construct is 13975 nucleotides long. The pSV40HXB2D-ΔIN was deposited at the Belgian Coordinated Collections of Micro-Organisms located at the Universiteit Gent - Laboratorium voor Moleculaire Biologie on August 5, 2002 and the accession number is LMBP 4574.
# Recombinant virus was produced by co-transfection by electroporation of the SmaI-linearized IN-deletion construct and the integrase amplicon into MT4 cells or MT4 cells equipped with an LTR driven reporter gene construct. Production of recombinant virus was evaluated by scoring the cytopathogenic effect (CPE) that is induced by HIV-infection of MT4 cells or by the LTR-driven reporter signal induced by HIV infection in MT4 reporter cells.
# [1] = AVE 2, patient_146514, primer set 3
# [2] = Human immunodeficiency virus 1, AVE 2, patient_146514, primer set 3
SMILES,fold change [1],EC50 [2] [nM],"EC50 (AVE 2, patient_146514, primer set 3, read-out: EC 50) [nM]",EC50 [1] [nM]
c1cc(CN2CCCNCCNCCCNCC2)ccc1CN1CCCNCCNCCCNCC1 [AMD3100],"1,0",54.9,,
"CC(C)CN(C[C@@H](O)[C@H](Cc1ccccc1)NC(=O)O[C@H]1CCOC1)S(=O)(=O)c1ccc(N)cc1 [APV, Amprenavir]","1,4",117,,
O=C(O)C1=CC(=C(c2ccc(O)c(C(=O)O)c2)c2ccc(O)c(C(=O)O)c2)C=CC1=O [ATA],"1,0",,1970,
"Cc1cn([C@H]2C[C@H](N=[N+]=[N-])[C@@H](CO)O2)c(=O)[nH]c1=O [AZT, Zidovudine]","0,9",150,,
"Cc1cc(C#N)cc(C)c1Oc1nc(Nc2ccc(C#N)cc2)nc(N)c1Br [Compound 1, 4-[[6-amino-5-bromo-2-[(4-cyanophenyl)amino]-4-pyrimidinyl]oxy]-3,5-dimethyl-benzonitrile]","1,7",,,1.7
"Cc1cc(C#N)cc(C)c1Oc1nc(Nc2ccc(C#N)cc2)nc(N)c1Br [Compound 2, 4-[[6-amino-5-bromo-2-[(4-cyanophenyl)amino]-4-pyrimidinyl]oxy]-3,5-dimethyl-Benzonitrile]","1,3",,,3.9
"Nc1ccn([C@@H]2CS[C@H](CO)O2)c(=O)n1 [Compound 3TC, Lamivudine]","2,5",3490,,
"CC(C)Oc1ccc(Cc2ccccc2)cc1C(=O)CC(=O)C(=O)O [Compound 4, 2-(1-methylethyloxy)-α,γ dioxo-5-(phenylmethyl)-benzenebutanoic acid]","1,0",280,,
"O=c1[nH]cnc2c1ncn2[C@H]1CC[C@@H](CO)O1 [DDI, Didanosine]","2,2",10400,,
"CC(C)(C)NC(=O)[C@@H]1CN(Cc2cccnc2)CCN1C[C@@H](O)C[C@@H](Cc1ccccc1)C(=O)N[C@H]1c2ccccc2C[C@H]1O [IDV, Indinavir]","1,3",56.4,,
"Cc1ccnc2c1NC(=O)c1cccnc1N2C1CC1 [NVP, Nevirapine]","1,7",151,,
"CC(C)c1nc(CN(C)C(=O)N[C@H](C(=O)N[C@@H](Cc2ccccc2)C[C@H](O)[C@H](Cc2ccccc2)NC(=O)OCc2cncs2)C(C)C)cs1 [RTV, ritonavir]","1,3",192,,
"CC(C)(C)NC(=O)[C@@H]1C[C@@H]2CCCC[C@@H]2CN1C[C@@H](O)[C@H](Cc1ccccc1)NC(=O)[C@H](CC(N)=O)NC(=O)c1ccc2ccccc2n1 [SQV, Saquinavir]","1,7",34.5,,
